The first assay relates to embryos from zebrafish model of DMD.
Assay: not given
The conditions noted are these: cited from earlier work.
For the molecule `Cc1ccc(S(=O)(=O)NCc2ccccc2)cc1` [N-benzyl-p-tolyl-sulfonamide (BTS), N-benzyl-p-tolyl-sulfonamide], the “protection of muscles from pathological muscle derangement” value is reported as “protect muscles from pathological muscle derangement”.

Another assay addresses T1, skeletal myofibrils (myosin ATPase activity) (Oryctolagus cuniculus, UniProt Q28641).
T1 construct: Rabbit Psoas Prep 11 (0.25 mg/mL)
As to the kind of experiment: Skeletal Myofibril ATPase Assay (PK/LDH-coupled, NADH absorbance at 340 nm). The class given is biochemical. The following applies: Rabbit Psoas myofibrils 0.25 mg/mL, ATP 0.05 mM, 1% DMSO vehicle = 100% activity. The protocol:
Overview: Myosin ATPase activity was assessed by using a coupled reaction system, in which ADP generated by the myosin ATPase function was coupled to the disappearance of NADH through the pyruvate kinase/lactate dehydrogenase (PK-LDH) system. Myosin ATPase activity produces ADP, which was used as a substrate for PK to produce pyruvate and regenerate ATP. The pyruvate was then used as a substrate by LDH to oxidize NADH to NAD+. The rate of the reaction was monitored through the time-dependent disappearance of NADH using absorbance at 340 nm. Inhibition of ATPase activity by the assayed compounds was indicated by a reduced rate of NADH loss, relative to vehicle-treated controls, over the experimental time window. To assess the selectivity of the assayed compounds for skeletal myofibrils, the compounds were counter-screened in cardiac myofibrils.
Materials: The following stock solutions and reagents were used in the Skeletal Myofibril ATPase Assay:
Stock Solutions of pCa buffer. Combine PIPES, CaCl2), and EGTA solutions with 70 mL of water. Adjust pH to 7.0 and bring final volume to 100 mL.
Buffer A & Buffer B. Butters were stored on ice until use.
Skeletal Myofibril ATPase Assay Procedure: BSA, ATP, NADH, PEP, and DTT solutions were thawed at room temperature, then transferred to ice. Pellet-frozen myofibrils (approximately twice the required volume) were transferred into a sufficiently large tube and capped. Myofibrils were thawed by rolling in a water bath for approximately 15 min at room temperature and cooled on ice. Buffers A and B were prepared by adjusting volumes as necessary for required number of wells and stored on ice. 0.5 μL of the compounds to be assayed were added into wells of a 384-well plate. Buffers A and B were mixed by inversion immediately prior to use, then 25 μL of each was dispensed using a Multidrop dispenser (Buffer A first, then Buffer B). The absorbance within the wells was measured at 340 nm, using a kinetic protocol in which the wells are read every 1.5-2 min for 1 h. The reaction rate was qualitatively assessed by subtracting the minimum absorbance value from the maximum value for each well, using either the SoftMax Pro plate reader software or a spreadsheet program such as Excel. Using GraphPad Prism 8.0, the data was normalized, with 100% activity defined as the absorbance change in the 1% DMSO vehicle wells and 0% assigned to no change in absorbance over the course of the experiment. The normalized data were fit to a variable-slope four-parameter logistic model, constraining the bottom to be 0 or greater. Compounds of Table 1 to 3 were tested and results of the assay appear in Table 4 herein. A=IC50 is less than or equal to 10 μM; B=IC50 is greater than 10 μM and less than 100 μM; C=IC50 is greater than 100 μM.
Molecule “2-(5-(5-(4-chloropyridin-2-yl)- 1,2,4-oxadiazol-3-yl)-2-oxopyri- din-1(2H)-yl)-N-ethylacetamide [Compound 51]” showed an IC50 of 10 to 100 µM. The same measure, in the same setting: then “6-(3-(3-chlorophenyl)-1,2,4- thiadiazol-5-yl)-2-((3-(pyridin- 3-yl)-1,2,4-oxadiazol-5-yl)- methyl)pyridazin-3(2H)-one [Compound 22]”, with ≥ 100 µM; and “6-(5-(3-chlorophenyl)-1,2,4- thiadiazol-3-yl)-2-((3-methyl- isoxazol-5-yl)methyl)pyridazin- 3(2H)-one [Compound 27]”, with ≤ 10 µM. For the molecule “6-(5-(5-chloropyridin-3-yl)- 1,2,4-thiadiazol-3-yl)-2-((3- methylisoxazol-5-yl)methyl)- pyridazin-3(2H)-one [Compound 28]”, the IC50 was ≥ 100 µM. Same read-out and setting: the value for “N-ethyl-2-(5-(5-morpholino- 1,2,4-thiadiazol-3-yl)-2-oxo- pyridin-1(2H)-yl)acetamide [Compound 11]” was 10 to 100 µM; that for “N-ethyl-2-(6-oxo-3-(5-(5- (trifluoromethyl)pyridin-3-yl)- 1,2,4-thiadiazol-3-yl)pyridazin- 1(6H)-yl)acetamide [Compound 19]” was ≥ 100 µM.
